Data taken from US20250154207A1, “PEPTIDES FOR DISSOLVING PROTEIN AGGREGATES AND METHODS THEREOF” (REJUKON BIOPHARM INC., priority 2022, published 2025).
Entries after “also recorded” stand apart in the source; their conditions may differ.

Tests used:
[1] = system: protein aggregates in eukaryotic cells; assay: depolymerization function in eukaryotic cells; assay type: cell-based; conditions: FIGS. 7-16
Text: The inventors then selected three peptides PLPR3 (SEQ ID NO: 6), ATXN8OS (SEQ ID NO: 7), and GRWD1 (SEQ ID NO: 8) to verify the depolymerization function in eukaryotic cells with the experimental scheme shown in FIG. 6.

[2] = previously identified, PCT/CN2021/111683; cited from earlier work
[3] = molecular target: G3BP1 aggregates (Homo sapiens, UniProt Q13283); assay: in vitro dissolving of protein aggregates by purified peptides; assay type: biochemical
Chain of G3BP1 aggregates (Q13283 whole entry): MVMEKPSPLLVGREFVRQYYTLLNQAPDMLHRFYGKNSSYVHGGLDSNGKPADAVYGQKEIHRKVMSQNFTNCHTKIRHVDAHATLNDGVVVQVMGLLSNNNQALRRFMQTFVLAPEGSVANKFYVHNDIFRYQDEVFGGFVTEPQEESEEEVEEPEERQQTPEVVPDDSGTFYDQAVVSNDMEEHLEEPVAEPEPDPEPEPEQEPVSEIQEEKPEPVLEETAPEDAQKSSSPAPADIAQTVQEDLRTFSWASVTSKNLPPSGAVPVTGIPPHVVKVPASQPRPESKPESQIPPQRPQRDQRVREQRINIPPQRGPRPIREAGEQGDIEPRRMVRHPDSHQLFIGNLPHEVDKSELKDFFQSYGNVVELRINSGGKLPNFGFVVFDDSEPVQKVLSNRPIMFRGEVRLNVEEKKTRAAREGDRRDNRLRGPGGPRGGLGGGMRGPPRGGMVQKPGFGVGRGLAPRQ
Protocol: Given that the charged amino acid residues have the highest percentage in Champ-E, the inventors first tested the function of the charged amino acid residues in dissolving protein aggregates. The inventors generated a series variant of Champ-E with mutation of aspartic acid residues and tested their capability of dissolving protein aggregates in vitro and in cells. The variant peptides were expressed in E. coli and then purified (see FIG. 3). The purified variant peptides were then added to in vitro protein solution that is capable of forming protein aggregates.

Substance	depolymerization effect in eukaryotic cells [1]	further results
ATXN8OS: SEQ ID NO: 7, PCPGAPCCSLVATGSRVPFSGLKEEEEEDGEDDEEEEEEG; fragment of human protein	have depolymerization effect	–
C19L2: SEQ ID NO: 10, LPDVNERIEQFSQEHSVKKKKKKDKHSKKAKKEKKKKSKK; few or no P/G	have depolymerization effect	–
CACNA1F: SEQ ID NO: 12, DMEEEEEEEEEEEEEEEEEGAGGVELLQEVVPKEKVVPIP; few or no polar residues	almost no depolymerization effect	–
CHD3(E2K): SEQ ID NO: 14, RKKKKKKTKRRKKGKGDGGQKQVKQKSSATLLLTWGLKDV; CHD3 with E mutated to K	still has certain depolymerization effect	–
CHD3: SEQ ID NO: 13, REKKEKKTKRRKKGEGDGGQKQVEQKSSATLLLTWGLEDV; mixture of positively and negatively charged residues	some depolymerization effect	–
Champ-E: SEQ ID NO: 1, MTEPQEESEEEVEEPEERQQTPEVVPDDSGTFYDQTVSNDLE; charged amphipathic peptide	–	capable of dissolving protein aggregation [2]: capable of dissolving protein aggregation
GRWD1: SEQ ID NO: 8, SNRLMMLRMHNLHGTKPPPSEGSDEEEEEEDEEDEEERKP; fragment of human protein	have depolymerization effect	–
PELP1: SEQ ID NO: 15, GGPPALEEDLTVININSSDEEEEEEEEEEEEEEEEEEEEE	–	dissolving G3BP1 protein aggregates ([3]; in vitro, FIG. 17): capable of dissolving G3BP1 protein aggregates
PLPR3: SEQ ID NO: 6, PMAEEEEEEEDEEEEEEEEEEEDEGPAPPSLYPTVQARPG; fragment of human protein	have depolymerization effect	–
ZNF326: SEQ ID NO: 11, DEPIEEEEDEDEEEEAEEVGEVEEVEEVEEVREGGIEGEG; few or no polar residues	almost no depolymerization effect	–
“Champ”-Q: SEQ ID NO: 5, TQPQQQSQQQVQQPQQRQQTPQVVPDDSGTFYDQTVSNDLQ; uncharged variant of Champ-E	–	capability of dissolving protein aggregates in vitro ([3]; purified peptide added to in vitro protein solution capable of forming protein aggregates, FIG. 4): could no longer dissolve protein aggregates; also recorded: no obvious depolymerization effect
